Measurements as given in patent publication US6881741B2 (ViroChem Pharma Inc., priority 2001, dated 2005).

target: recombinant HCV NS5B (HCV RNA-dependent RNA polymerase) (Hepatitis C virus genotype 1b, UniProt P26663); assay: biochemical; conditions: HCV polymerase activity, list of compounds of Example 27; read-out: IC50 (polymerase activity)
Sequence (P26663 2420-3010 limits assumed): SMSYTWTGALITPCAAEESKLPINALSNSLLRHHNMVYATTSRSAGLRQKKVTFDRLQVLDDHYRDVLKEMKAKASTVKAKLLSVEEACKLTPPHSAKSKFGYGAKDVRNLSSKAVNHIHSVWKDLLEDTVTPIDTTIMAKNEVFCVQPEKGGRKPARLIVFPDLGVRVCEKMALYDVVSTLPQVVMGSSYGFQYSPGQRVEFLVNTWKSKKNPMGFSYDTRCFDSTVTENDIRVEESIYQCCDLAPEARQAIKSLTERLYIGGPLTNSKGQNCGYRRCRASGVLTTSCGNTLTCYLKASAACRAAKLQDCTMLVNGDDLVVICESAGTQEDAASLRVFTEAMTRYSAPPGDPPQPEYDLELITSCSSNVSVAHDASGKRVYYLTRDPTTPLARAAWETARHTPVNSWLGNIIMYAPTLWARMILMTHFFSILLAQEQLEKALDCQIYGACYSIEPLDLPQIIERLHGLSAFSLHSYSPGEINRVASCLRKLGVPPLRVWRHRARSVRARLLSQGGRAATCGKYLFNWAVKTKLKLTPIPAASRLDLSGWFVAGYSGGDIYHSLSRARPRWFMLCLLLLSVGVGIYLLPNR

| Structure (SMILES) | IC50 [µM] |
| --- | --- |
| CC1CCC(C(=O)N(c2cc(-c3ccccc3)sc2C(=O)O)C(C)C)C1 (stereo not shown) [Compound 408, 3-[ISOPROPYL-(3-METHYL- CYCLOPENTANECARBONYL)-AMINO]-5- PHENYL-THIOPHENE-2-CARBOXYLIC ACID] | 5 to 20 |
| O=C(O)c1sc(-c2ccccc2)cc1N(Cc1ccccc1)C(=O)C1CCC1 [Compound 489, 3-(BENZYL-CYCLOBUTANECARBONYL- AMINO)-5-PHENYL-THIOPHENE-2- CARBOXYLIC ACID] | < 5 |
| CCCC(=O)N(Cc1ccc(F)cc1F)c1cc(-c2ccccc2)sc1C(=O)O [Compound 496, 3-[BUTYRYL-(2,4-DIFLUORO-BENZYL)- AMINO]-5-PHENYL-THIOPHENE-2- CARBOXYLIC ACID] | < 5 |
| CC(C)(C)OC(=O)N1CCCC(N(C(=O)c2ccc(Cl)cc2Cl)c2cc(-c3ccccc3)sc2C(=O)O)C1 (stereo not shown) [Compound 511, 3-[(2-CARBOXY-5-PHENYL-THIOPHEN-3- YL)-(2,4-DICHLORO-BENZOYL)-AMINO]- PIPERIDINE-1-CARBOXYLIC ACID #TERT!-BUTYL ESTER] | < 5 |
| O=C(O)c1sc(-c2ccccc2)cc1N(Cc1cccc(Cl)c1)C(=O)C1CC1 [Compound 480, 3-[(3-CHLORO-BENZYL)- CYCLOPROPANECARBONYL-AMINO]-5- PHENYL-THIOPHENE-2-CARBOXYLIC ACID] | 5 to 20 |
| Cc1cccc(-c2cc(N(C(=O)c3ccc(C)cc3O)C(C)C)c(C(=O)O)s2)c1 [Compound 502, 3-[(2-HYDROXY-4-METHYL-BENZOYL)- ISOPROPYL-AMINO]-5-#M!-TOLYL- THIOPHENE-2-CARBOXYLIC ACID] | < 5 |
| CC(=O)c1ccc(-c2cc(N(C(=O)C3CCC(C)CC3)C(C)C)c(C(=O)O)s2)cc1 (stereo not shown) [Compound 460, 5-(4-ACETYL-PHENYL)-3-[ISOPROPYL-(4- METHYL-CYCLOHEXANECARBONYL)- AMINO]-THIOPHENE-2-CARBOXYLIC ACID] | < 5 |
| O=C(O)c1sc(-c2ccccc2)cc1N(Cc1cccc(Cl)c1)C(=O)C1CCC1 [Compound 481, 3-[(3-CHLORO-BENZYL)- CYCLOBUTANECARBONYL-AMINO]-5- PHENYL-THIOPHENE-2-CARBOXYLIC ACID] | 5 to 20 |
| CC(C1CCNCC1)N(C(=O)c1ccc(Cl)cc1Cl)c1cc(-c2ccccc2)sc1C(=O)O (stereo not shown) [Compound 529, 3-[(2,4-DICHLORO-BENZOYL)-(1- PIPERIDIN-4-YL-ETHYL)-AMINO]-5- PHENYL-THIOPHENE-2- CARBOXYLIC ACID; COMPOUND WITH TRIFLUORO-ACETIC ACID] | < 5 |
| Cc1ccc(C(=O)N(c2cc(-c3ccccc3)sc2C(=O)O)C(C)C)c(C(N)=O)c1 [Compound 474, 3-[(2-CARBAMOYL-4-METHYL-BENZOYL)- ISOPROPYL-AMINO]-5-PHENYL- THIOPHENE-2-CARBOXYLIC ACID] | 5 to 20 |
| COc1cccc(CN(C(=O)C2CCC2)c2cc(-c3ccccc3)sc2C(=O)O)c1 [Compound 473, 3-[CYCLOBUTANECARBONYL-(3- METHOXY-BENZYL)-AMINO]-5-PHENYL- THIOPHENE-2-CARBOXYLIC ACID] | 5 to 20 |
| CC(=O)N1CCC(N(C(=O)c2ccc(Cl)cc2Cl)c2cc(-c3ccccc3)sc2C(=O)O)CC1 [Compound 429, 3-[(1-ACETYL-PIPERIDIN-4-YL)-(2,4- DICHLORO-BENZOYL)-AMINO]-5- PHENYL-THIOPHENE-2-CARBOXYLIC ACID] | < 5 |

same assay, conditions: related polymerase activity (Example 27 list); read-out: IC50

| Structure (SMILES) | IC50 [µM] |
| --- | --- |
| C=CCN(C(=O)Cc1ccc(F)cc1F)c1cc(-c2ccccc2)sc1C(=O)O [Compound 351, 3-{ALLYL-[2-(2,4-DIFLUORO-PHENYL)- ACETYL]-AMINO}-5-PHENYL-THIOPHENE- 2-CARBOXYLIC ACID] | 5 to 20 |
| CCN(C(=O)C1CCC1)c1cc(-c2ccccc2)sc1C(=O)O [Compound 393, 3-(CYCLOBUTANECARBONYL-ETHYL- AMINO)-5-PHENYL-THIOPHENE-2- CARBOXYLIC ACID] | 5 to 20 |
| CCN(C(=O)CCC1CCCC1)c1cc(-c2ccccc2)sc1C(=O)O [Compound 392, 3-[(3-CYCLOPENTYL-PROPIONYL)- ETHYL-AMINO]-5-PHENYL-THIOPHENE-2- CARBOXYLIC ACID] | < 5 |
| CC(=O)N(Cc1ccc(Cl)cc1)c1cc(-c2ccccc2)sc1C(=O)O [Compound 241, 3-[ACETYL-(4-CHLORO-BENZYL)-AMINO]-5-PHENYL-THIOPHENE-2-CARBOXYLIC ACID] | 5 to 20 |
| COc1ccccc1-c1cc(NS(=O)(=O)c2ccccc2C)c(C(=O)O)s1 [Compound 104, 5-(2-METHOXY-PHENYL)-3-(TOLUENE-2-SULFONYLAMINO)-THIOPHENE-2-CARBOXYLIC ACID] | 5 to 20 |
| N#Cc1ccccc1-c1ccc(CN(C(=O)c2ccc(Cl)cc2Cl)c2cc(-c3ccccc3)sc2C(=O)O)s1 [Compound 132, 3-[[(5-(2-CYANO-PHENYL)-THIOPHEN-2-YLMETHYL]-(2,4-DICHLORO-BENZOYL)-AMINO]-5-PHENYL-THIOPHENE-2-CARBOXYLIC ACID] | < 5 |
| O=C(O)c1sc(-c2ccccc2)cc1NS(=O)(=O)c1ccc(F)cc1F [Compound 27, 3-(2,4-DIFLUORO-BENZENESULFONYLAMINO)-5-PHENYL-THIOPHENE-2-CARBOXYLIC ACID] | < 5 |
| CC(C)N(C(=O)c1ccc(Cl)cc1F)c1cc(-c2ccccc2)sc1C(=O)O [Compound 307, 3-[(4-CHLORO-2-FLUORO-BENZOYL)- ISOPROPYL-AMINO]-5-PHENYL- THIOPHENE-2-CARBOXYLIC ACID] | < 5 |
| COc1ccc(N2CCN(C(=O)Nc3cc(-c4ccccc4)sc3C(=O)O)CC2)cc1 [Compound 181, 3-{[4-(4-METHOXY-PHENYL)-PIPERAZINE-1-CARBONYL]-AMINO}-5-PHENYL-THIOPHENE-2-CARBOXYLIC ACID] | 5 to 20 |
| Cc1ccccc1S(=O)(=O)Nc1cc(Cc2cccc(C#N)c2)sc1C(=O)O [Compound 150, 5-(3-CYANO-BENZYL)-3-(TOLUENE-2-SULFONYLAMINO)-THIOPHENE-2-CARBOXYLIC ACID] | > 20 |
| CC(=O)Oc1cc(C)ccc1C(=O)N(c1cc(-c2ccccc2)sc1C(=O)O)C(C)C [Compound 377, 3-[(2-ACETOXY-4-METHYL-BENZOYL)- ISOPROPYL-AMINO]-5-PHENYL- THIOPHENE-2-CARBOXYLIC ACID] | 5 to 20 |
| Cc1cccc(C)c1N1CCN(C(=O)Nc2cc(-c3ccccc3)sc2C(=O)O)CC1 [Compound 158, 3-{[4-(2,6-DIMETHYL-PHENYL)-PIPERAZINE-1-CARBONYL]-AMINO}-5-PHENYL-THIOPHENE-2-CARBOXYLIC ACID] | > 20 |
| Cc1ccccc1S(=O)(=O)Nc1cc(-c2ccc(Cl)c(Cl)c2)sc1C(=O)O [Compound 85, 5-(3,4-DICHLORO-PHENYL)-3-(TOLUENE-2-SULFONYLAMINO)-THIOPHENE-2-CARBOXYLIC ACID] | 5 to 20 |
| Cc1ccc(C(=O)N(C)c2cc(-c3ccc(N)cc3)sc2C(=O)O)cc1 [Compound 200, 5-(4-AMINO-PHENYL)-3-[METHYL-(4-METHYL-BENZOYL)-AMINO]-THIOPHENE-2-CARBOXYLIC ACID] | 5 to 20 |
| CC(=O)c1ccc(S(=O)(=O)Nc2cc(-c3ccccc3)sc2C(=O)O)cc1 [Compound 140, 3-(4-ACETYL-BENZENESULFONYLAMINO)-5-PHENYL-THIOPHENE-2-CARBOXYLIC ACID] | 5 to 20 |
| O=C(O)c1sc(-c2ccccc2)cc1NS(=O)(=O)c1ccc(Cl)c(Cl)c1Cl [Compound 153, 5-PHENYL-3-(2,3,4-TRICHLORO-BENZENESULFONYLAMINO)-THIOPHENE-2-CARBOXYLIC ACID] | < 5 |
| CC(C)N(C(=O)c1cc(Cl)cc(Cl)c1)c1cc(-c2ccccc2)sc1C(=O)O [Compound 219, 3-[(3,5-DICHLORO-BENZOYL)-ISOPROPYL-AMINO]-5-PHENYL-THIOPHENE-2-CARBOXYLIC ACID] | 5 to 20 |
| Cc1ccccc1S(=O)(=O)Nc1cc(-c2cc(F)cc(F)c2)sc1C(=O)O [Compound 69, 5-(3,5-DIFLUORO-PHENYL)-3-(TOLUENE-2-SULFONYLAMINO)-THIOPHENE-2-CARBOXYLIC ACID] | < 5 |
| Cc1ccccc1S(=O)(=O)Nc1cc(-c2ccc(CO)cc2)sc1C(=O)O [Compound 125, 5-(4-HYDROXYMETHYL-PHENYL)-3-(TOLUENE-2-SULFONYLAMINO)-THIOPHENE-2-CARBOXYLIC ACID] | < 5 |
| O=C(O)c1sc(-c2ccc(F)cc2)cc1NS(=O)(=O)c1ccccc1 [Compound 135, 3-BENZENESULFONYLAMINO-5-(4-FLUORO-PHENYL)-THIOPHENE-2-CARBOXYLIC ACID] | < 5 |
| Cc1ccc(S(=O)(=O)Nc2cc(C(C)(C)C)sc2C(=O)O)c(C)c1 [Compound 315, 5-#TERT!-BUTYL-3-(2,4-DIMETHYL- BENZENESULFONYLAMINO)- THIOPHENE-2-CARBOXYLIC ACID] | 5 to 20 |
| CN(C(=O)c1ccc(Cl)nc1Cl)c1cc(-c2ccccc2)sc1C(=O)O [Compound 245, 3-[(2,6-DICHLORO-PYRIDINE-3-CARBONYL)-METHYL-AMINO]-5-PHENYL-THIOPHENE-2-CARBOXYLIC ACID] | 5 to 20 |
| Cc1ccccc1S(=O)(=O)Nc1cc(-c2ccc(C(N)=O)cc2)sc1C(=O)O [Compound 282, 5-(4-CARBAMOYL-PHENYL)-3-(TOLUENE-2-SULFONYLAMINO)-THIOPHENE-2-CARBOXYLIC ACID] | 5 to 20 |
| Cc1ccc(C(=O)N(C)c2cc(-c3cccc(Cl)c3)sc2C(=O)O)cc1 [Compound 269, 5-(3-CHLORO-PHENYL)-3-[METHYL-(4-METHYL-BENZOYL)-AMINO]-THIOPHENE-2-CARBOXYLIC ACID] | < 5 |
| Cc1ccccc1S(=O)(=O)Nc1cc(C(=O)c2ccccc2)sc1C(=O)O [Compound 82, 5-BENZOYL-3-(TOLUENE-2-SULFONYLAMINO)-THIOPHENE-2-CARBOXYLIC ACID] | 5 to 20 |
| Cc1ccc(C(=O)N(C)c2cc(-c3cccnc3)sc2C(=O)O)cc1 [Compound 302, 3-[METHYL-(4-METHYL-BENZOYL)- AMINO]-5-PYRIDIN-3-YL-THIOPHENE-2- CARBOXYLIC ACID] | 5 to 20 |
| CC(C)N(C(=O)c1ccc(C#N)cc1)c1cc(-c2ccccc2)sc1C(=O)O [Compound 311, 3-[(4-CYANO-BENZOYL)-ISOPROPYL- AMINO]-5-PHENYL-THIOPHENE-2- CARBOXYLIC ACID] | 5 to 20 |
| Cc1ccccc1S(=O)(=O)Nc1cc(-c2cnn(S(=O)(=O)N(C)C)c2)sc1C(=O)O [Compound 163, 5-(1-DIMETHYLSULFAMOYL-1H-PYRAZOL-4-YL)-3-(TOLUENE-2-SULFONYLAMINO)-THIOPHENE-2-CARBOXYLIC ACID] | 5 to 20 |
